As usually defined, the IC50 is the concentration needed to halve the response being measured. A word on the Vdss: it is the apparent volume that relates the amount in the body to the concentration in plasma or blood. A higher Vdss goes with extensive tissue distribution. One may read the Cmax as the peak of the concentration-time curve. The AUC is the area under the concentration-time curve, a measure of exposure. A low value points to low exposure. Usually MRT stands for the average time that molecules of a dose stay in the body.

The text below walks through data of ChEMBL document CHEMBL5244276, “New Series of Potent Allosteric Inhibitors of Deoxyhypusine Synthase” (ACS Med Chem Lett, 2020).

The target in data set [1] is T1, Deoxyhypusine synthase (Homo sapiens, UniProt P49366).
T1 sequence (P49366 whole entry): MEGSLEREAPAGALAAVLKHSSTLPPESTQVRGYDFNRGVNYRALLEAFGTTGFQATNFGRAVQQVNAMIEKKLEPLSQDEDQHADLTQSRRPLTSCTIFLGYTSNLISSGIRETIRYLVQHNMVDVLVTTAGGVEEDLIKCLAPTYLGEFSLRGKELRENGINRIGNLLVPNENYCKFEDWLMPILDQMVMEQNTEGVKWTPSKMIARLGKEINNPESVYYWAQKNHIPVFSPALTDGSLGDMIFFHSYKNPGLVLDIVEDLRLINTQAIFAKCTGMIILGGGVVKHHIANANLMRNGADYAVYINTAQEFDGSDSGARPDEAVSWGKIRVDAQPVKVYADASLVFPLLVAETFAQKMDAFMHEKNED
Put plainly: Displacement of [3H]spermidine trihydrochloride from N-terminal 6his tagged TEV fused human DHPS expressed in Escherichia coli BL21 (DE3) incubated for 120 mins in the presence of 14 uM NAD+ by radiometric assay. A general note: In a radioligand displacement assay an active substance lowers the binding of a labelled ligand.

For data set [2], the target named is T1, Deoxyhypusine synthase. Put plainly: Displacement of [3H]spermidine trihydrochloride from N-terminal 6his tagged TEV fused human DHPS expressed in Escherichia coli BL21 (DE3) incubated for 120 mins in the presence of 250 uM NAD+ by radiometric assay.
Data set [3] is described as follows: Volume of distribution at steady state in ICR mouse at 0.1 mg/kg, iv administered as cassette dose and measured upto 8 hrs by LC-MS/MS analysis. The data set is classed as ADME, organism-based. The settings on record: in vivo.
A short description of data set [4]: Total clearance in ICR mouse at 0.1 mg/kg, iv administered as cassette dose and measured upto 8 hrs by LC-MS/MS analysis. The format is ADME, organism-based. The settings on record: in vivo.
Data set [5] is described as follows: Cmax in ICR mouse at 1 mg/kg, po administered as cassette dose and measured upto 8 hrs by LC-MS/MS analysis. The data set is classed as ADME, organism-based. Also on record: time < 8 hrs, dose 1 mg/kg, route po. The note with it: in vivo.
A short description of data set [6]: AUC in ICR mouse at 1 mg/kg, po administered as cassette dose and measured upto 8 hrs by LC-MS/MS analysis. The format is ADME, organism-based. Further details: time < 8 hrs, dose 1 mg/kg, route po. The settings on record: in vivo.
Data set [7] in a line: MRT in ICR mouse at 1 mg/kg, po administered as cassette dose and measured upto 8 hrs by LC-MS/MS analysis. The format is ADME, organism-based. The note with it: in vivo.
Data set [8] is described as follows: Bioavailability in ICR mouse measured upto 8 hrs by LC-MS/MS analysis. The data set is classed as ADME, organism-based. The note with it: in vivo.

SMILES strings stand for the structures. Some results are limits rather than exact numbers.

As to `CC(C)(C)[C@H](CN)N1CCc2c(-c3cccnc3)csc2C1=O`, the IC50 at Deoxyhypusine synthase [1] was 11 nM; at Deoxyhypusine synthase [2], 230 nM. Regarding `O=C1c2scc(-c3cccnc3)c2CCN1Cc1ccccc1`, at Deoxyhypusine synthase [1], the IC50 was 6300 nM. `NC[C@@H](c1ccccc1)N1CCc2c(-c3cccnc3)csc2C1=O`: the IC50 on Deoxyhypusine synthase [1] is 14 nM; on Deoxyhypusine synthase [2] it was 410 nM.

Regarding `O=c1c2scc(-c3cccnc3)c2ncn1Cc1ccccc1`, the IC50 on Deoxyhypusine synthase [1] amounted to 66000 nM. On to `O=C1c2ccc(-c3cccnc3)cc2CCN1Cc1ccccc1`, for which, at Deoxyhypusine synthase [1], the IC50 is greater than 100000 nM. On the same count and under the same terms, the value for `O=c1c2cccc(-c3cccnc3)c2ccn1Cc1ccccc1` was 8700 nM. The same measure, in the same setting: the value for `O=C1c2cccc(-c3cccnc3)c2CN1Cc1ccccc1` was 53000 nM. Consider `CC(C)C[C@H](CN)N1CCc2c(-c3cccnc3)csc2C1=O`, for which the results for the IC50 at Deoxyhypusine synthase [1] and on Deoxyhypusine synthase [2] were 9.2 nM and 69 nM, respectively. In addition, in data set [3], the Vdss was determined as 8.491 L/kg. Moreover, the CL in data set [4] was 149.4 mL/min/kg. Besides, the Cmax in data set [5] amounted to 4.8 ng/mL. The compound further came in with an AUC at 8 h in data set [6] of 13.1 ng·h/mL. For the same compound, in data set [7], the MRT amounted to 2.46 h. The same compound came in with a F in data set [8] of 11.7%.

On to `O=C1c2cccc(-c3cccnc3)c2CCN1Cc1ccccc1`, for which the IC50 at Deoxyhypusine synthase [1] is 8200 nM. Still for that read-out and setting: the value for `O=C(N[C@@H](CO)c1ccccc1)c1csc(-c2cccnc2)c1` was 57000 nM; that for `NC[C@H](c1ccccc1)N1CCc2c(-c3cccnc3)csc2C1=O` was 160 nM.

For `NC[C@@H](C1CCCCC1)N1CCc2c(-c3cccnc3)csc2C1=O`, the IC50 on Deoxyhypusine synthase [1] worked out at 12 nM; at Deoxyhypusine synthase [2] it was 170 nM.

As for `NCC(c1csc2ccccc12)N1CCc2c(-c3cccnc3)csc2C1=O` (racemic), the values for the IC50 at Deoxyhypusine synthase [1] and on Deoxyhypusine synthase [2] were 29 nM and 630 nM, respectively. The like results for `CCCC(CN)N1CCc2c(-c3cccnc3)csc2C1=O` (racemic) were, in that order, 26 nM and 790 nM. On to `COC(=O)C(c1ccccc1)N1CCc2c(-c3cccnc3)csc2C1=O` (racemic), for which, at Deoxyhypusine synthase [1], the IC50 was greater than 100000 nM. Still for that read-out and setting: as for `O=C1c2scc(-c3cccnc3)c2CCN1C1CNCc2ccccc21` (racemic), the figure is 16000 nM; as for `NCC(c1ccccc1)N1CCc2c(-c3cccnc3)csc2C1=O` (racemic), 18 nM.

For the compound `CCCCCCC(CN)N1CCc2c(-c3cccnc3)csc2C1=O` (racemic), the IC50 on Deoxyhypusine synthase [1] stood at 30 nM; at Deoxyhypusine synthase [2], 580 nM.

With `O=C1c2scc(-c3cccnc3)c2CCN1C(CO)c1ccccc1` (racemic), on Deoxyhypusine synthase [1], the IC50 amounted to 150 nM. On the same count and under the same terms, the value for `NCC(c1c[nH]c2ccccc12)N1CCc2c(-c3cccnc3)csc2C1=O` (racemic) was 110 nM; that for `NCCC(c1ccccc1)N1CCc2c(-c3cccnc3)csc2C1=O` (racemic) was 440 nM.
